Experiments:
[1] = system: T1, UGT enzymes of human liver microsomes; assay: Kinetic and Ki studies of inhibitors of 7-HFC glucuronidation in human liver microsomes; format: biochemical; conditions: 7-HFC 20-500 μM
T1 construct: percentage of control metabolism, 7-HFC glucuronidation; percentage of control metabolism, 7-HFC glucuronidation

[2] = system: UGT enzymes of pooled human jejunum microsomes; assay: Inhibition of estradiol (E2) glucuronidation in pooled human jejunum microsomes; format: biochemical; conditions: jejunum HJ61; E2 50 μM; inhibitor 10 μM
From the text: Compounds were eluted using a binary solvent gradient system where solvent A was dilute phosphoric acid (pH 3) and solvent B was 80:20 acetonitrile-methanol. […] Detection was at 280 nm.

[3] = target: T2, UGT1A1 (Homo sapiens, UniProt P22309); assay: Inhibition of raloxifene glucuronidation by recombinant UGT1A1 Supersomes; conditions: human; for activity at 15 min, 2 μM: inhibitor 2 μM; for activity at 15 min, 5 µM: inhibitor 5 μM; for activity at 15 min, 10 µM: inhibitor 10 μM; for activity at 15 min, 25 µM: inhibitor 25 μM; for activity at 15 min, 50 µM: inhibitor 50 μM
T2 sequence (P22309 26-533): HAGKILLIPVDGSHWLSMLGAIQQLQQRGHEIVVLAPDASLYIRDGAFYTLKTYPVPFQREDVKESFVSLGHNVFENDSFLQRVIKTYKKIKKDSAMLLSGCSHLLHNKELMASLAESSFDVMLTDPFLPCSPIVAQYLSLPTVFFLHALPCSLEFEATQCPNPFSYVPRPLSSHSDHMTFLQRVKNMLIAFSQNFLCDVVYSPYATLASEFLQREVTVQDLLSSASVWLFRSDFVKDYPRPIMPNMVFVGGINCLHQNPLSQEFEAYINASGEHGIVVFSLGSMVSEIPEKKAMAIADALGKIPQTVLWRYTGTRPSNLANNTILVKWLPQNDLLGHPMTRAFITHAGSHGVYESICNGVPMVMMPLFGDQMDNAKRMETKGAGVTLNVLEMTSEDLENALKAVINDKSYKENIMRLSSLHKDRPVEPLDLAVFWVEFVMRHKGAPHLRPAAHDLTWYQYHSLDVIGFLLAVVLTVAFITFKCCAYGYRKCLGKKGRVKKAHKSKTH
Protocol: (§1) Compounds were eluted using a binary solvent gradient system. Solvent A was water brought to pH 8 with NH4OH. Solvent B was methanol. Solvent flow rate was 1 ml/min and the column temperature was maintained at 50° C. Detection was at 280 nm. […] The system was then returned to the initial conditions and equilibrated for 3 min.

[4] = target: T3, UGT1A3 (Homo sapiens, UniProt P35503); assay: Inhibition of raloxifene glucuronidation by recombinant UGT1A3 Supersomes; conditions: human; for activity at 15 min, 10 µM: inhibitor 10 μM; for activity at 15 min, 25 µM: inhibitor 25 μM; for activity at 15 min, 50 µM: inhibitor 50 μM
T3 sequence (P35503 29-534): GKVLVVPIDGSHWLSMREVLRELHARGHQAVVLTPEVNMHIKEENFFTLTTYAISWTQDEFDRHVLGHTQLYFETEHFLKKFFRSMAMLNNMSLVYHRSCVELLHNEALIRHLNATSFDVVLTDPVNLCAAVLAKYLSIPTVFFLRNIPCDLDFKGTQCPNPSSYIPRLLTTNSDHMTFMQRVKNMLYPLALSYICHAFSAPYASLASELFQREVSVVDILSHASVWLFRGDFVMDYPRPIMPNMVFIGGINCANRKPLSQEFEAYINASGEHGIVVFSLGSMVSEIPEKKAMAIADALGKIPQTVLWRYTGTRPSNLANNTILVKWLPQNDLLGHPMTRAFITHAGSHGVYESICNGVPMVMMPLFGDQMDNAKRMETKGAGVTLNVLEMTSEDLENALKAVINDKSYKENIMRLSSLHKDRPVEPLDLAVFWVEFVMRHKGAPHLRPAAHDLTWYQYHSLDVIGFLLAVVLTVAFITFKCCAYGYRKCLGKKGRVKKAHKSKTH
Protocol: as §1

[5] = target: T4, UGT1A9 (Homo sapiens, UniProt O60656); assay: Inhibition of raloxifene glucuronidation by recombinant UGT1A9 Supersomes; conditions: for Inhibition of raloxifene glucuronidation, UGT1A9, first line per inhibitor (G1): first line (G1, metabolite not given); for Inhibition of raloxifene glucuronidation, UGT1A9, first line per inhibitor (G1) / Inhibition of raloxifene glucuronidation, UGT1A9, second line per inhibitor (G2): raloxifene 50 μM, 250 μg/ml Supersomes, 1 mM UDPGA, 15 min; for activity at 15 min, 5 µM / activity at 15 min, 10 µM / activity at 15 min, 25 µM / activity at 15 min, 50 µM: human, Supersomes with recombinant human UGT1A9, pH 7.5, probe raloxifene 50 μM; for Inhibition of raloxifene glucuronidation, UGT1A9, second line per inhibitor (G2): second line (G2, metabolite not given)
T4 sequence (O60656 26-530): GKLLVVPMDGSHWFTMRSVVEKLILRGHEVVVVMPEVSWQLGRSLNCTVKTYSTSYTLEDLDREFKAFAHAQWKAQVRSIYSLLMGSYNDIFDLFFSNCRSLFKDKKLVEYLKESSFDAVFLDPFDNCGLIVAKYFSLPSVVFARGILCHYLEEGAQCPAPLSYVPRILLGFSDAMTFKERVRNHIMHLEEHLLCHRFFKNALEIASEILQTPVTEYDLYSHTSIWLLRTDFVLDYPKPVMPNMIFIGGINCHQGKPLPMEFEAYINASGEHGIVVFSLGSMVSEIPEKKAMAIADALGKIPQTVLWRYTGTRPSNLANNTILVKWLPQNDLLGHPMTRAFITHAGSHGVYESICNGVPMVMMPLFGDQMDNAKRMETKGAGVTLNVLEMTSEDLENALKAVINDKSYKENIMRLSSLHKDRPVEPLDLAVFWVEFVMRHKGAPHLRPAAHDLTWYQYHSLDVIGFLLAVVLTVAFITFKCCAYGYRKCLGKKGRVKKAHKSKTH

[6] = Supersomes with recombinant human UGT1A1, pH 7.5, probe raloxifene 50 μM, formation of glucuronide G1, % of control metabolism, raloxifene G1, UGT1A1
[7] = Supersomes with recombinant human UGT1A1, pH 7.5, probe raloxifene 50 μM, formation of glucuronide G1, Inhibition of raloxifene glucuronidation, G1, UGT1A1, G1, raloxifene 50 μM, 250 μg/ml Supersomes, 1 mM UDPGA, 15 min
[8] = Supersomes with recombinant human UGT1A1, pH 7.5, probe raloxifene 50 μM, formation of glucuronide G2, % of control metabolism, raloxifene G2, UGT1A1
[9] = recombinant UGT1A1 Supersomes, pH 7.5, probe raloxifene 50 μM (formation of glucuronide G1), Inhibition of raloxifene glucuronidation, G1, UGT1A1, G1, raloxifene 50 μM, 250 μg/ml Supersomes, 1 mM UDPGA, 15 min
[10] = recombinant UGT1A1 Supersomes, pH 7.5, probe raloxifene 50 μM (formation of glucuronide G2), Inhibition of raloxifene glucuronidation, G2, UGT1A1, G2, raloxifene 50 μM, 250 μg/ml Supersomes, 1 mM UDPGA, 15 min
[11] = Supersomes with recombinant human UGT1A3, pH 7.5, probe raloxifene 50 μM, formation of glucuronide G1, % of control metabolism, raloxifene G1, UGT1A3
[12] = Supersomes with recombinant human UGT1A3, pH 7.5, probe raloxifene 50 μM, formation of glucuronide G2, % of control metabolism, raloxifene G2, UGT1A3
[13] = recombinant UGT1A3 Supersomes, pH 7.5, probe raloxifene 50 μM (formation of glucuronide G1), Inhibition of raloxifene glucuronidation, G1, UGT1A3, G1, raloxifene 50 μM, 250 μg/ml Supersomes, 1 mM UDPGA, 15 min
[14] = recombinant UGT1A3 Supersomes, pH 7.5, probe raloxifene 50 μM (formation of glucuronide G2), Inhibition of raloxifene glucuronidation, G2, UGT1A3, G2, raloxifene 50 μM, 250 μg/ml Supersomes, 1 mM UDPGA, 15 min

Vmax of 7-HFC glucuronidation (fit of the experiment with this inhibitor) [1]: 57 ± 3 nmol/min/mg
Km ([1]; read-out: Km of 7-HFC glucuronidation (fit of the experiment with this inhibitor)): 85 ± 7 µM
residual metabolism (% of control), E2-3-β-D-glucuronide [2]: 18 (1) %
residual metabolism (% of control), E2-17-β-D-glucuronide [2]: 17 (1) %
activity at 15 min ([3]; Supersomes with recombinant human UGT1A1, pH 7.5, probe raloxifene 50 μM, formation of glucuronide G1): 17%
activity at 15 min, 2 μM [3, 6]: 71%
activity at 15 min, 5 µM [3, 6]: 39%
activity at 15 min, 10 µM [3, 6]: 17%
activity at 15 min, 25 µM [3, 6]: 4%
activity at 15 min, 50 µM [3, 6]: 0.4%
activity at 15 min, 25 µM [3, 7]: 4%
activity at 15 min, 50 µM [3, 7]: 0.4%
activity at 15 min, 2 μM [3, 8]: 71%
activity at 15 min, 5 µM [3, 8]: 38%
activity at 15 min, 10 µM [3, 8]: 17%
activity at 15 min, 25 µM [3, 8]: 8%
activity at 15 min, 50 µM [3, 8]: 0.9%
activity at 15 min, 2 μM [3, 9]: 71%
activity at 15 min, 5 µM [3, 9]: 39%
activity at 15 min ([3]; recombinant UGT1A1 Supersomes, pH 7.5, probe raloxifene 50 μM (formation of glucuronide G2)): 17%
activity at 15 min, 2 μM [3, 10]: 71%
activity at 15 min, 5 µM [3, 10]: 38%
activity at 15 min, 25 µM [3, 10]: 8%
activity at 15 min, 50 µM [3, 10]: 0.9%
activity at 15 min, 10 µM [4, 11]: 48%
activity at 15 min, 25 µM [4, 11]: 25%
activity at 15 min, 50 µM [4, 11]: 3%
activity at 15 min, 10 µM [4, 12]: 64%
activity at 15 min, 25 µM [4, 12]: 38%
activity at 15 min, 50 µM [4, 12]: 5%
activity at 15 min, 10 µM [4, 13]: 48%
activity at 15 min, 25 µM [4, 13]: 25%
activity at 15 min, 50 µM [4, 13]: 3%
activity at 15 min, 10 µM [4, 14]: 64%
activity at 15 min, 25 µM [4, 14]: 38%
activity at 15 min, 50 µM [4, 14]: 5%
Inhibition of raloxifene glucuronidation, UGT1A9, first line per inhibitor (G1) ([5]; inhibitor 5 μM): 53 (2)
Inhibition of raloxifene glucuronidation, UGT1A9, first line per inhibitor (G1) ([5]; inhibitor 50 μM): 17 (0)
activity at 15 min, 5 µM ([5]; formation of glucuronide G1, % of control metabolism, raloxifene G1, UGT1A9, inhibitor 5 μM): 53%
activity at 15 min, 10 µM ([5]; formation of glucuronide G1, % of control metabolism, raloxifene G1, UGT1A9, inhibitor 10 μM): 44%
activity at 15 min, 25 µM ([5]; formation of glucuronide G1, % of control metabolism, raloxifene G1, UGT1A9, inhibitor 25 μM): 21%
activity at 15 min, 50 µM ([5]; formation of glucuronide G1, % of control metabolism, raloxifene G1, UGT1A9, inhibitor 50 μM): 17%
activity at 15 min, 5 µM ([5]; formation of glucuronide G2, % of control metabolism, raloxifene G2, UGT1A9, inhibitor 5 μM): 76%
activity at 15 min, 10 µM ([5]; formation of glucuronide G2, % of control metabolism, raloxifene G2, UGT1A9, inhibitor 10 μM): 45%
activity at 15 min, 25 µM ([5]; formation of glucuronide G2, % of control metabolism, raloxifene G2, UGT1A9, inhibitor 25 μM): 19%
activity at 15 min, 50 µM ([5]; formation of glucuronide G2, % of control metabolism, raloxifene G2, UGT1A9, inhibitor 50 μM): 42%
Inhibition of raloxifene glucuronidation, UGT1A9, second line per inhibitor (G2) ([5]; inhibitor 5 μM): 76 (3)
Inhibition of raloxifene glucuronidation, UGT1A9, second line per inhibitor (G2) ([5]; inhibitor 10 μM): 45 (1)
Inhibition of raloxifene glucuronidation, UGT1A9, second line per inhibitor (G2) ([5]; inhibitor 25 μM): 19 (3)
Inhibition of raloxifene glucuronidation, UGT1A9, second line per inhibitor (G2) ([5]; inhibitor 50 μM): 42 (5)
SMILES: O=C(OC[C@H]1O[C@@H](OC(=O)c2cc(O)c(O)c(OC(=O)c3cc(O)c(O)c(O)c3)c2)[C@H](OC(=O)c2cc(O)c(O)c(OC(=O)c3cc(O)c(O)c(O)c3)c2)[C@@H](OC(=O)c2cc(O)c(O)c(OC(=O)c3cc(O)c(O)c(O)c3)c2)[C@@H]1OC(=O)c1cc(O)c(O)c(OC(=O)c2cc(O)c(O)c(O)c2)c1)c1cc(O)c(O)c(OC(=O)c2cc(O)c(O)c(O)c2)c1 [Tannic acid]

Source: US20030215462A1, “Use of UGT inhibitors to increase bioavailability” (priority 2001, published 2003)
